ChEMBL document CHEMBL5137009, “On the Utility of Chemical Strategies to Improve Peptide Gut Stability” (J Med Chem, 2022)
*1 amine or outer side, *2 acyl side, *3 side chain or, on linkers, in order; H or OH if unused. Where a SMILES comes first, the peptide text is derived from it. Bridges are numbered along the chain shown (N, C = ends). X1 = O=C(CCC[*:2])[*:1]

What was measured:
[1] = Stability of the compound in simulated intestinal fluid at pH 6.8 assessed as half life measured up to 24 hrs by RP-HPLC-UV analysis; assay type: ADME
[2] = Stability of the compound in simulated gastric fluid at pH 1.2 assessed as half life measured up to 24 hrs by RP-HPLC-UV analysis; assay type: ADME

SMILES	half-life [1] [h]	half-life [2] [h]
CC[C@H](C)[C@@H]1NC(=O)[C@H](Cc2ccc(O)cc2)NC(=O)[C@@H](N)CSSC[C@@H](C(=O)N2CCC[C@H]2C(=O)N[C@@H](CC(C)C)C(=O)N(C)CC(N)=O)NC(=O)[C@H](CC(N)=O)NC(=O)[C@H](CCC(N)=O)NC1=O	2.9	–
CC(C)C[C@@H]1NC(=O)CNC(=O)[C@H](CC(N)=O)NC(=O)[C@H](CCCNC(=N)N)NC(=O)[C@H]([C@@H](C)O)NC(=O)[C@@H]2CSSC[C@@H]3NC(=O)[C@H]([C@@H](C)O)NC(=O)CNC(=O)CNC(=O)[C@H](C(C)C)NC(=O)[C@@H]4CSSC[C@H](NC(=O)[C@H]([C@@H](C)O)NC(=O)[C@H](CSSC[C@H](NC(=O)[C@H](C(C)C)NC(=O)[C@@H]5CCCN5C1=O)C(=O)NCC(=O)N[C@@H](CCC(=O)O)C(=O)N[C@@H]([C@@H](C)O)C(=O)N4)NC(=O)CNC(=O)[C@@H]1CCCN1C(=O)[C@H]([C@@H](C)O)NC(=O)[C@H](CC(N)=O)NC3=O)C(=O)N[C@@H](CO)C(=O)N[C@@H](Cc1c[nH]c3ccccc13)C(=O)N1CCC[C@H]1C(=O)N[C@@H](C(C)C)C(=O)N2	> 24	> 24
CC[C@H](C)[C@@H]1NC(=O)[C@H](Cc2ccc(O)cc2)NC(=O)[C@@H]2CSSC[C@@H]3NC(=O)[C@H](C(C)C)NC(=O)[C@@H]4CCCN4C(=O)[C@H](Cc4c[nH]c5ccccc45)NC(=O)[C@H](CO)NC(=O)[C@@H]4CSSC[C@H](NC(=O)[C@H]([C@@H](C)O)NC(=O)[C@H](CCC(=O)O)NC(=O)CNC(=O)[C@H](CSSC[C@H](NC(=O)[C@H](CC(N)=O)NC(=O)[C@H](CCC(N)=O)NC1=O)C(=O)N[C@@H]([C@@H](C)O)C(=O)N4)NC(=O)[C@H](C(C)C)NC(=O)[C@@H]1CCCN1C(=O)[C@H](CC(C)C)NC(=O)CNC(=O)[C@H](CC(N)=O)NC(=O)[C@H](CCCNC(=N)N)NC(=O)[C@H]([C@@H](C)O)NC3=O)C(=O)N[C@@H](C(C)C)C(=O)NCC(=O)NCC(=O)N[C@@H]([C@@H](C)O)C(=O)N2	> 24	–
CC[C@H](C)[C@@H]1NC(=O)[C@H](Cc2ccc(O)cc2)NC(=O)[C@@H](N)CSSC[C@@H](C(=O)N2CCC[C@H]2C(=O)N[C@@](C)(CC(C)C)C(=O)NCC(N)=O)NC(=O)[C@H](CC(N)=O)NC(=O)[C@H](CCC(N)=O)NC1=O	4.4	–
CC[C@H](C)[C@@H]1NC(=O)[C@H](Cc2ccc(O)cc2)NC(=O)[C@@H]2CSSC[C@@H]3NC(=O)[C@H]([C@@H](C)CC)NC(=O)[C@@H]4CCCN4C(=O)[C@H](Cc4c[nH]c5ccccc45)NC(=O)[C@H](CO)NC(=O)[C@@H]4CSSC[C@H](NC(=O)[C@H]([C@@H](C)O)NC(=O)[C@H](CCC(=O)O)NC(=O)CNC(=O)[C@H](CSSC[C@H](NC(=O)[C@H](CC(N)=O)NC(=O)[C@H]([C@@H](C)O)NC1=O)C(=O)N[C@@H]([C@@H](C)O)C(=O)N4)NC(=O)[C@H](C(C)C)NC(=O)[C@@H]1CCCN1C(=O)[C@H](CC(C)C)NC(=O)CNC(=O)[C@H](CC(N)=O)NC(=O)[C@H](CCCNC(=N)N)NC(=O)[C@H](CCCCN)NC3=O)C(=O)N[C@@H]([C@@H](C)O)C(=O)N[C@@H](CC(C)C)C(=O)NCC(=O)N[C@@H]([C@@H](C)O)C(=O)N2	> 24	–
CC[C@H](C)[C@@H]1NC(=O)[C@H](Cc2ccc(O)cc2)NC(=O)[C@@H](N)CSSC[C@@H](C(=O)N2CCC[C@H]2C(=O)N[C@H](CC(=O)NCC(N)=O)CC(C)C)NC(=O)[C@H](CC(N)=O)NC(=O)[C@H](CCC(N)=O)NC1=O	3.6	–
CC[C@H](C)[C@@H]1NC(=O)[C@H](Cc2ccc(O)cc2)NC(=O)[C@@H]2CSSC[C@@H]3NC(=O)[C@H](C(C)C)NC(=O)[C@@H]4CCCN4C(=O)[C@H](Cc4c[nH]c5ccccc45)NC(=O)[C@H](CO)NC(=O)[C@@H]4CSSC[C@H](NC(=O)[C@H]([C@@H](C)O)NC(=O)[C@H](CCC(=O)O)NC(=O)CNC(=O)[C@H](CSSC[C@H](NC(=O)[C@H](CC(N)=O)NC(=O)[C@H]([C@@H](C)O)NC1=O)C(=O)N[C@@H]([C@@H](C)O)C(=O)N4)NC(=O)[C@H](C(C)C)NC(=O)[C@@H]1CCCN1C(=O)[C@H](CC(C)C)NC(=O)CNC(=O)[C@H](CC(N)=O)NC(=O)[C@H](CCCNC(=N)N)NC(=O)[C@H]([C@@H](C)O)NC3=O)C(=O)N[C@@H](C(C)C)C(=O)NCC(=O)NCC(=O)N[C@@H]([C@@H](C)O)C(=O)N2	> 24	–
CC[C@H](C)[C@@H]1NC(=O)[C@@H]2CCCN2C(=O)[C@H](Cc2c[nH]c3ccccc23)NC(=O)[C@H](CO)NC(=O)[C@@H]2CSSC[C@@H]3NC(=O)[C@H]([C@@H](C)O)NC(=O)[C@H](CCC(=O)O)NC(=O)CNC(=O)[C@@H]4CSSC[C@H](NC(=O)CNC(=O)[C@H](CCC(N)=O)NC(=O)[C@H]([C@@H](C)O)NC(=O)[C@H](Cc5ccc(O)cc5)NC(=O)[C@H](CSSC[C@H](NC1=O)C(=O)N[C@@H](CCCCN)C(=O)N[C@@H](CCCNC(=N)N)C(=O)N[C@@H](CC(N)=O)C(=O)NCC(=O)N[C@@H](CC(C)C)C(=O)N1CCC[C@H]1C(=O)N[C@@H](C(C)C)C(=O)N4)NC(=O)[C@H]([C@@H](C)O)NC(=O)CNC(=O)[C@H](CC(C)C)NC(=O)[C@H]([C@@H](C)O)NC3=O)C(=O)N[C@@H]([C@@H](C)O)C(=O)N2	> 24	> 24
CC[C@H](C)[C@@H]1NC(=O)[C@H](Cc2ccc(O)cc2)NC(=O)[C@@H]2CSSC[C@H](NC(=O)[C@H](CC(N)=O)NC(=O)[C@H](CCC(N)=O)NC1=O)C(=O)N1CCC[C@H]1C(=O)N[C@@H](CC(C)C)C(=O)NCC(=O)N2	0.117	–
CC[C@@H](C)[C@H]1NC(=O)[C@@H](Cc2ccc(O)cc2)NC(=O)[C@H](N)CSSC[C@H](C(=O)N2CCC[C@@H]2C(=O)N[C@H](CC(C)C)C(=O)NCC(N)=O)NC(=O)[C@@H](CC(N)=O)NC(=O)[C@@H](CCC(N)=O)NC1=O	> 24	–
[H][C@@]12CCCN1C(=O)[C@@H]1CSSC[C@H](NC(=O)CNC(=O)[C@H](C)NC(=O)CNC(=O)[C@H](C)NC(=O)CNC(=O)[C@H](C)NC(=O)CNC(=O)[C@H](CC(C)C)NC2=O)C(=O)N[C@@H](Cc2ccc(O)cc2)C(=O)N[C@@H]([C@@H](C)CC)C(=O)N[C@@H](CCC(N)=O)C(=O)N[C@@H](CC(N)=O)C(=O)N1 (HELM PEPTIDE1{A.G.A.G.A.G.C.Y.I.Q.N.C.P.L.G}$PEPTIDE1,PEPTIDE1,7:R3-12:R3|PEPTIDE1,PEPTIDE1,1:R1-15:R2$$$V2.0)	< 0.05	–
CC[C@H](C)[C@@H]1NC(=O)[C@@H]2CSSC[C@H](NC(=O)[C@H](CCCNC(=N)N)NC(=O)[C@@H]3CSSC[C@H](NC1=O)C(=O)N[C@@H]([C@@H](C)O)C(=O)N[C@@H](CCCNC(=N)N)C(=O)NCC(=O)N[C@@H](Cc1ccccc1)C(=O)N3)C(=O)N[C@@H](CC(C)C)C(=O)N[C@H]1CSSC[C@H](NC(=O)[C@H](C(C)C)NC(=O)CNC(=O)[C@H](CCCNC(=N)N)NC(=O)[C@H](CCCNC(=N)N)NC1=O)C(=O)N[C@@H](CCCNC(=N)N)C(=O)N2 (HELM PEPTIDE1{G.F.C.R.C.L.C.R.R.G.V.C.R.C.I.C.T.R}$PEPTIDE1,PEPTIDE1,3:R3-16:R3|PEPTIDE1,PEPTIDE1,5:R3-14:R3|PEPTIDE1,PEPTIDE1,7:R3-12:R3|PEPTIDE1,PEPTIDE1,1:R1-18:R2$$$V2.0)	–	2.2
CC[C@H](C)[C@@H]1NC(=O)[C@@H]2CCCN2C(=O)[C@@H]2CCCN2C(=O)[C@H]([C@@H](C)CC)NC(=O)[C@H](CO)NC(=O)[C@H](CCCCN)NC(=O)[C@H]([C@@H](C)O)NC(=O)[C@@H]2CSSC[C@H](NC1=O)C(=O)N[C@@H](Cc1ccc(OC)cc1)C(=O)N[C@@H](Cc1ccccc1)C(=O)N[C@@H](CCC(N)=O)C(=O)N[C@@H](CC(N)=O)C(=O)N[C@@H](CCCNC(=N)N)C(=O)N1CCC[C@H]1C(=O)N[C@@H](CCCNC(=N)N)C(=O)N2 (cyclo(CTKSIPPICY(Me)FQNRPR); disulfide 1-9)	0.05	–
CC[C@H](C)[C@@H]1NC(=O)[C@H](Cc2ccc(OC)cc2)NC(=O)CCCSC[C@@H](C(=O)N2CCC[C@H]2C(=O)N[C@@H](CC(C)C)C(=O)NCC(N)=O)NC(=O)[C@H](CC(N)=O)NC(=O)[C@H](CCC(N)=O)NC1=O [CARBETOCIN] (Y(Me)IQNCPLG-NH2; linker N-5 via X1)	–	> 24
C[C@@H]1NC(=O)[C@@H]2CCCN2C(=O)[C@H](CC(N)=O)NC(=O)[C@@H]2CSSC[C@H](N)C(=O)N[C@H]3CSSC[C@H](NC1=O)C(=O)N[C@@H]([C@@H](C)O)C(=O)NCC(=O)N[C@H](C(=O)N[C@@H](Cc1ccc(O)cc1)C(=O)O)CSSC[C@H](NC(=O)[C@H](Cc1ccc(O)cc1)NC(=O)[C@H](CCC(=O)O)NC3=O)C(=O)N2 [LINACLOTIDE] (HELM PEPTIDE1{C.C.E.Y.C.C.N.P.A.C.T.G.C.Y}$PEPTIDE1,PEPTIDE1,1:R3-6:R3|PEPTIDE1,PEPTIDE1,2:R3-10:R3|PEPTIDE1,PEPTIDE1,5:R3-13:R3$$$V2.0)	–	> 24
C[C@@H](O)[C@@H]1NC(=O)[C@H](CCCCN)NC(=O)[C@@H](Cc2c[nH]c3ccccc23)NC(=O)[C@H](Cc2ccccc2)NC(=O)[C@@H](NC(=O)[C@H](N)Cc2ccccc2)CSSC[C@@H](C(=O)N[C@H](CO)[C@@H](C)O)NC1=O [OCTREOTIDE]	–	> 24
CC[C@H](C)[C@@H]1NC(=O)[C@H](Cc2ccc(O)cc2)NC(=O)[C@@H](N)CSSC[C@@H](C(=O)N2CCC[C@H]2C(=O)N[C@@H](CC(C)C)C(=O)NCC(N)=O)NC(=O)[C@H](CC(N)=O)NC(=O)[C@H](CCC(N)=O)NC1=O [OXYTOCIN]	–	> 24
CC(C)C[C@H](NC(=O)[C@@H]1CSSC[C@@H]2NC(=O)[C@H](CC(C)C)NC(=O)[C@H](CCC(=O)O)NC(=O)[C@@H](NC(=O)[C@H](CCC(=O)O)NC(=O)[C@H](CC(=O)O)NC(=O)[C@@H](N)CC(N)=O)CSSC[C@H](NC(=O)[C@H](C)NC(=O)[C@H](C(C)C)NC(=O)[C@H](CC(N)=O)NC(=O)[C@H](C(C)C)NC2=O)C(=O)N[C@@H]([C@@H](C)O)C(=O)NCC(=O)N1)C(=O)O [PLECANATIDE]	–	> 24
NC(=O)CC[C@@H]1NC(=O)[C@H](Cc2ccccc2)NC(=O)[C@H](Cc2ccc(O)cc2)NC(=O)[C@@H](N)CSSC[C@@H](C(=O)N2CCC[C@H]2C(=O)N[C@@H](CCCN=C(N)N)C(=O)NCC(N)=O)NC(=O)[C@H](CC(N)=O)NC1=O [VASOPRESSIN]	–	> 24
